Measurements from patent US11919865B2, “Processes for preparing AG-10, its intermediates, and salts thereof” (EIDOS THERAPEUTICS, INC., priority 2017, dated 2024).
Several values for one entry are separate records, joined by “and”; a condition that tells them apart may be missing. Equal values may be shown once. Each block holds one compound with its values, some of them ahead of it.

What was measured:
[1] = Bioavailability of AG-10 in male and female dogs at different oral dosing levels; assay type: in vivo; settings: oral 5 mg/kg or 20 mg/kg, plasma 2-24 hours
Protocol: The mean plasma concentration of AG-10 was measured from 2-24 hours after oral dosing with 5 mg/kg or 20 mg/kg of AG-10. The calculated pharmacokinetic data is shown in FIG. 3B, FIG. 3D and FIG. 3F.

[2] = Bioavailability of AG-10, mean plasma concentration after intravenous and oral dosing; assay type: in vivo; settings: 1 mg/kg intravenously and 5 mg/kg orally, plasma 0-24 hours
Protocol: The mean plasma concentration of AG-10 was measured from 0-24 hours after dosing with 1 mg/kg of AG-10 intravenously and 5 mg/kg of AG-10 orally. The calculated pharmacokinetic data is shown in FIG. 2B, FIG. 2D, and FIG. 2F.

[3] = Oral dosing of AG-10 forms, plasma pharmacokinetics by LC-MS/MS; assay type: in vivo, Rat
Protocol: (§1) Rats or Dogs were orally dosed with the zwitterion, Na salt, or HCl salt for of AG-10. Plasma samples from each rat/dog, as applicable, were measured between 0 and up to 96 hours after dosing with the specified form of AG-10. After isolation from the animal, each sample (50 μL) was protein precipitated by adding 500 μL 0.1% formamide in acetonitrile to the sample. After addition for the formamide solution, the sample was vortexed and centrifuging at 1400 rpm for 15 min at 4° C. 100 μL of the supernatant was removed and diluted with 100 μL water. 5 μL of the diluted sample was injected for LC-MS/MS analysis.

[4] = Intravenous dosing of AG-10 forms, plasma pharmacokinetics by LC-MS/MS; assay type: in vivo
Protocol: as §1, with “Mice, Rats” for “Rats”, “were intravenously” for “were orally”, “each mouse/rat/dog,” for “each rat/dog,”, “and 24” for “and up to 96”, “diluted samples” for “diluted sample”

[5] = Oral dosing of AG-10 forms, plasma pharmacokinetics by LC-MS/MS; assay type: in vivo, Dog; settings: for Exposure (0-24 h) / Cmax: dog
Protocol: as §1

[6] = Intravenous dosing of AG-10 forms, plasma pharmacokinetics by LC-MS/MS; settings: in vivo, dog, 1 mg/kg, the Cmax reported is an extrapolated C0
Protocol: as §1, with “Mice, Rats” for “Rats”, “were intravenously” for “were orally”, “each mouse/rat/dog,” for “each rat/dog,”, “and 24” for “and up to 96”, “diluted samples” for “diluted sample”

Bioavailability [1]: high bioavailability
Bioavailability ([2]; dogs): high bioavailability
Bioavailability ([2]; mice): high bioavailability
Bioavailability ([2]; rats): high bioavailability
SMILES: Cc1n[nH]c(C)c1CCCOc1cc(C(=O)O)ccc1F [AG-10, 3-(3-(3,5-dimethyl-1H-pyrazol-4-yl)propoxy)-4-fluorobenzoic acid]

Cmax ([3]; in vivo, rat, 200 mg/kg): 216000 ng/mL and 741 µM
Exposure (0-24 h) ([3]; rat, 200 mg/kg): 395,503 ng · h/mL
Cmax ([4]; in vivo, rat, 1 mg/kg, the Cmax reported is an extrapolated C0, read-out: Cmax (extrapolated C0)): 4280 ng/mL and 14.6 µM
Exposure (0-24 h) ([5]; 20 mg/kg): 69,088 ng · h/mL
Exposure (0-24 h) ([5]; 25 mg/kg): 128,374 ng · h/mL
Exposure (0-24 h) ([5]; 60 mg/kg): 155,814 ng · h/mL
Exposure (0-24 h) ([5]; 200 mg/kg): 1,020,640 ng · h/mL
Cmax ([5]; in vivo, 20 mg/kg): 16100 ng/mL and 55.1 µM
Cmax ([5]; in vivo, 25 mg/kg): 25100 ng/mL and 85.8 µM
Cmax ([5]; in vivo, 60 mg/kg): 41800 ng/mL and 143 µM
Cmax ([5]; in vivo, 200 mg/kg): 154000 ng/mL and 528 µM
Cmax [6]: 5960 ng/mL and 20.4 µM
SMILES: Cc1n[nH]c(C)c1CCCOc1cc(C(=O)O)ccc1F.Cl [HCl salt, 3-[3-(3,5-dimethyl-1H-pyrazol-4-yl)propoxy]-4-fluorobenzoic acid hydrochloride salt]
Cmax values as compared to the zwitterion and the Na salt ([3]; rats, Table 3 row 3 vs row 1): surprising and significant improvement in Cmax values
Cmax values as compared to the zwitterion ([5]; dogs, Table 3 row 6 vs row 4): surprising and significant improvement in Cmax values

Cmax ([3]; plasma, rat, 200 mg/kg): 26400 ng/mL and 90.3 µM
Cmax ([4]; mouse, 3 mg/kg): 4480 ng/mL and 15.4 µM
Cmax ([4]; plasma, rat, 3.43 mg/kg, read-out: Cmax): 3090 ng/mL and 10.6 µM
Exposure (0-24 h) ([5]; 25 mg/kg): 89,786 ng · h/mL
Cmax ([5]; plasma, 25 mg/kg): 17500 ng/mL and 60 µM
SMILES: Cc1n[nH]c(C)c1CCCOc1cc(C(=O)O)ccc1F [Zwitterion, 3-(3-(3,5-dimethyl-1H-pyrazol-4-yl)propoxy)-4-fluorobenzoic acid]
